Data: patent US8546072B2, “Substrate for assaying β-glucan and/or endotoxin and assay method” (Wako Pure Chemical Industries, Ltd., priority 2008, dated 2013)
Primed or numbered codes have the meaning given here. The star is where a group is joined. NH(CH2)4NH′ = not defined here; Boc = CC(C)(C)OC(=O)*

Test system: clotting enzyme
Assay: Study on the reactivity of clotting enzyme by substrate (β-glucan-activated LAL fraction, HPLC of released fluorescent compound)
Assay type: biochemical, Limulus polyphemus
Conditions: β-glucan-specific LAL fraction, 25 ng/mL standard β-glucan (lentinan), 37° C., FIG. 3
Experimental: b) Aqueous solution of the peptide derivative of the present invention (hereinafter, sometimes abbreviated as substrate of the present invention): Boc-Thr-Gly-Arg-Gly-NH(CH2)4NH-Hilyte647 was dissolved in β-glucan-free water, and prepared to give 640 μM.
c) Aqueous substrate solution of known analogous substrate: Boc-Thr-Gly-Arg-NH-(CH2)4—NH-HiLyte647 obtained in Reference Example 1 was dissolved in β-glucan-free water, and prepared to give 640 μM.
d) Standard β-glucan solution: Intravenous lentinan preparation “Astellas” (Astellas Pharma Inc.) (1 mg) was dissolved in 0.1 M aqueous sodium hydroxide to give 50 μg/mL, and the solution was then diluted appropriately with β-glucan-free water, and used as the standard β-glucan solution. e) β-glucan specific LAL fraction solution: A fraction in which β-glucan-dependent clotting enzyme activity was detected was collected from the blood cell of American horseshoe crab (Limulus polyphemus) according to LAL extraction method described in pages 268 to 269 of “T. Kitagawa et al., Journal of Chromatography, 567 (1991) 267-273” and fractionation method by ion exchange chromatography, LAL fraction (a fraction corresponding to the fraction Nos. 7 to 20 in the above described literature) in 20 mM Tris-HCl buffer (pH 8.0) was obtained. […]

Row | time in which the substrate was cleaved by the clotting enzyme (substrate 160 μM in reagent for reaction 1) | decomposition rate (area of released fluorescent compound versus total area) (after 2 hours of reaction) | Substance
1 | about 20 minutes | – | Boc-Thr-Gly-Arg-Gly-NH(CH2)4NH-Hilyte647 (Boc-TGRG-{NH(CH2)4NH′-HiLyte Fluor 647}) [tetrapeptide substrate with butanediamine spacer and HiLyte Fluor 647 dye]
2 | – | ≤ 20% | Boc-Thr-Gly-Arg-NH(CH2)4NH-Hilyte647 [Reference Example 1]
